Results on ten compounds are retold here after ChEMBL document CHEMBL5058564, “EUbOPEN Chemogenomics Library 2 (Incucyte)” (2022).

What all share (format): toxicity, cell-based
One data set has as its system HEK-293T. The data set can be described thus: Incucyte cell viability with HEK293T. The note with it: human, 10 µM, compound concentration 10 uM.
The next data set relates to Fibroblast. As to the kind of experiment: Incucyte cell viability with human fibroblast. The note with it: 10 µM, compound concentration 10 uM.
In a further data set the test system is U2OS. As to the kind of experiment: Incucyte cell viability with U2OS. The note with it: human, 10 µM, compound concentration 10 uM.
The mark [1] stands for this setting: 0 h, replicate number 1, timepoint 0 hours.
[2] abbreviates: 0 h, replicate number 2, timepoint 0 hours.
Setting [3] is: 6 h, replicate number 1, timepoint 6 hours.
Where [4] appears, read: 12 h, replicate number 1, timepoint 12 hours.
Setting [5] is: 12 h, replicate number 2, timepoint 12 hours.
The mark [6] stands for this setting: 18 h, replicate number 1, timepoint 18 hours.
The mark [7] stands for this setting: 18 h, replicate number 2, timepoint 18 hours.
Where [8] appears, read: 24 h, replicate number 1, timepoint 24 hours.
The mark [9] stands for this setting: 24 h, replicate number 2, timepoint 24 hours.
Setting [10] is: 6 h, replicate number 2, timepoint 6 hours.
Note: unitless GR value; below 1 slowed growth and below 0 cell loss.

As for `Cc1cc(C)cc([C@H]2c3cc(C)ccc3NC(=O)CN2C(=O)c2ccc(Br)s2)c1`, the “Growth Rate” value in the data set with HEK-293T (setting [1]) is -0.3; with HEK-293T (setting [2]), 0.03; with HEK-293T (setting [3]) it was 0.95; in the data set on HEK-293T (setting [4]), 0.79; in the data set on HEK-293T (setting [5]), 0.81; in the data set on HEK-293T (setting [6]), 0.58. The “Growth Rate” value in the data set on HEK-293T (setting [7]) is recorded as 0.92; in the data set on HEK-293T (setting [8]), 0.65; in the data set on HEK-293T (setting [9]) it was 0.83; in the data set on Fibroblast (setting [1]), 0.07; in the data set with Fibroblast (setting [2]), 0.88; in the data set on Fibroblast (setting [3]) it was 0.06. Moreover, the “Growth Rate” value in the data set with Fibroblast (setting [4]) is on record as 0.6; in the data set with Fibroblast (setting [5]), 0.64; in the data set on Fibroblast (setting [6]) it was 0.44; in the data set with Fibroblast (setting [8]) it was 0.33; with Fibroblast (setting [9]), 0.97; in the data set with U2OS (setting [1]), -0.56. The “Growth Rate” value was determined as 0.12 in the data set on U2OS (setting [3]); 0.65 in the data set with U2OS (setting [4]); 0.52 with U2OS (setting [6]); 0.88 with U2OS (setting [7]); 0.67 in the data set on U2OS (setting [8]); 0.94 in the data set with U2OS (setting [9]).

As for `CC(C)c1c(NC(=O)Nc2ccc(Cl)cc2)c(=O)n(-c2ccccc2)n1C`, the “Growth Rate” value in the data set on HEK-293T (setting [2]) worked out at 0.92; in the data set on HEK-293T (setting [10]), 0.74; in the data set with HEK-293T (setting [4]), 0.65; with HEK-293T (setting [5]), 0.96; in the data set with HEK-293T (setting [6]), 0.55; with HEK-293T (setting [8]), 0.53. Moreover, the “Growth Rate” value in the data set on HEK-293T (setting [9]) was determined as 0.96; in the data set with Fibroblast (setting [1]) it was 0.29; in the data set with Fibroblast (setting [2]) it was 0.39; in the data set with Fibroblast (setting [3]) it was 0.31; with Fibroblast (setting [4]) it was 0.35; in the data set with Fibroblast (setting [5]), 0.54. The “Growth Rate” value in the data set on Fibroblast (setting [6]) is reported as 0.76; with Fibroblast (setting [7]), 0.54; with Fibroblast (setting [8]), 0.69; in the data set on Fibroblast (setting [9]) it was 0.44; with U2OS (setting [1]), -0.9; in the data set on U2OS (setting [2]), -0.97.

Consider `CCc1nnc(NS(=O)(=O)c2ccc(NC(=S)NC(=O)/C=C/c3ccc(F)cc3)cc2)s1`, for which the “Growth Rate” value is 0.59 in the data set with HEK-293T (setting [2]); 0.64 in the data set on HEK-293T (setting [3]); 0.53 in the data set with HEK-293T (setting [4]); 0.58 in the data set on HEK-293T (setting [6]); 0.67 in the data set with HEK-293T (setting [8]); 0.73 with HEK-293T (setting [9]). Also, the “Growth Rate” value is -0.01 in the data set with Fibroblast (setting [2]); 0.82 with Fibroblast (setting [10]); 0.7 with Fibroblast (setting [4]); 0.53 in the data set on Fibroblast (setting [5]); 0.53 with Fibroblast (setting [7]); 0.62 in the data set on Fibroblast (setting [8]). In addition, the “Growth Rate” value in the data set on Fibroblast (setting [9]) is 0.61; with U2OS (setting [1]), 0.07; in the data set on U2OS (setting [2]), -0.11; in the data set on U2OS (setting [3]) it was 0.55; in the data set with U2OS (setting [4]), 0.77; with U2OS (setting [6]), 0.81. Besides, the “Growth Rate” value with U2OS (setting [7]) and with U2OS (setting [8]) was 0.86 in each case.

In the case of `O=C1Nc2ccc(I)cc2/C1=C/c1cc(Br)c(O)c(Br)c1`, the “Growth Rate” value is -0.08 in the data set on HEK-293T (setting [1]); 0.11 in the data set with HEK-293T (setting [2]); 0.97 in the data set on HEK-293T (setting [6]); 0.91 in the data set with HEK-293T (setting [8]); -0.2 with Fibroblast (setting [1]); 0.15 in the data set with Fibroblast (setting [2]). In addition, the “Growth Rate” value in the data set on U2OS (setting [2]) was -0.15; in the data set with U2OS (setting [4]) it was 0.89.

As for `CCC(=O)NCC[C@@H]1CCc2ccc3c(c21)CCO3` [RAMELTEON], the “Growth Rate” value is reported as 0.12 in the data set with HEK-293T (setting [1]); -0.36 in the data set on HEK-293T (setting [2]); 0.99 in the data set with HEK-293T (setting [3]); 0.86 in the data set on HEK-293T (setting [8]); 0.51 in the data set on Fibroblast (setting [1]); 0.17 with Fibroblast (setting [2]). Further, the “Growth Rate” value with Fibroblast (setting [3]) was determined as 0.76; in the data set on Fibroblast (setting [10]) it was 0.51; with Fibroblast (setting [4]) it was 0.96; in the data set with Fibroblast (setting [5]), 0.73; in the data set on Fibroblast (setting [6]) it was 0.96; in the data set with Fibroblast (setting [7]), 0.83. For the same compound, the “Growth Rate” value is 0.77 in the data set with Fibroblast (setting [8]); 0.89 in the data set on Fibroblast (setting [9]); -0.01 with U2OS (setting [1]); 0.45 in the data set with U2OS (setting [3]); 0.54 in the data set with U2OS (setting [4]); 0.88 in the data set on U2OS (setting [6]). Besides, the “Growth Rate” value with U2OS (setting [8]) amounted to 0.82.

As to `Cc1cc(Cn2nnc3c(-c4ccco4)nc(N)nc32)ccc1N` [VIPADENANT], the “Growth Rate” value was found to be 0.37 in the data set on HEK-293T (setting [1]); 0.5 in the data set with HEK-293T (setting [2]); 0.84 with HEK-293T (setting [10]); 0.95 in the data set with HEK-293T (setting [5]); 0.03 in the data set with Fibroblast (setting [1]); 0.35 in the data set with Fibroblast (setting [2]). Besides, the “Growth Rate” value in the data set on Fibroblast (setting [3]) is given as 0.45; in the data set on Fibroblast (setting [4]), 0.08; with Fibroblast (setting [6]), 0.23; with Fibroblast (setting [7]), 0.81; in the data set on Fibroblast (setting [8]) it was 0.17; in the data set with U2OS (setting [2]), -1. Moreover, the “Growth Rate” value with U2OS (setting [6]) came to 0.79.

For the compound `Cl.Cl.NCCc1c[nH]cn1` [HISTAMINE DIHYDROCHLORIDE], the “Growth Rate” value is 0.54 in the data set on HEK-293T (setting [1]); 0.62 in the data set with HEK-293T (setting [2]); 0.99 in the data set with HEK-293T (setting [3]); 0.79 in the data set with HEK-293T (setting [4]); 0.83 in the data set on HEK-293T (setting [6]); 0.79 in the data set on HEK-293T (setting [7]). For the same compound, the “Growth Rate” value in the data set on HEK-293T (setting [8]) came out at 0.82; in the data set on HEK-293T (setting [9]), 0.75; in the data set with Fibroblast (setting [1]) it was 0.45; in the data set on Fibroblast (setting [4]) it was 0.77; in the data set on Fibroblast (setting [5]), 1; in the data set with Fibroblast (setting [6]), 0.99. Besides, the “Growth Rate” value with Fibroblast (setting [7]) is reported as 0.87; in the data set with Fibroblast (setting [8]) it was 0.52; in the data set on Fibroblast (setting [9]), 0.76; in the data set with U2OS (setting [1]), 0.04; in the data set with U2OS (setting [2]), 0.37; with U2OS (setting [3]), 0.35. Also, the “Growth Rate” value is given as 0.76 in the data set on U2OS (setting [4]), 0.97 in the data set with U2OS (setting [5]) and 0.74 in the data set with U2OS (setting [6]).

Consider `COc1cc(NC(=O)CCN2CCC(OC(=O)Nc3ccccc3-c3ccccc3)CC2)c(Cl)cc1CNC[C@H](O)c1ccc(O)c2[nH]c(=O)ccc12` [BATEFENTEROL], for which the “Growth Rate” value is -0.23 with HEK-293T (setting [1]); 0.01 in the data set on HEK-293T (setting [2]); 0.88 in the data set on HEK-293T (setting [4]); 0.79 in the data set on HEK-293T (setting [5]); 0.8 with HEK-293T (setting [6]); 1 in the data set on HEK-293T (setting [7]). For the same compound, the “Growth Rate” value in the data set with Fibroblast (setting [1]) was -0.65; with Fibroblast (setting [2]), 0.38; with U2OS (setting [2]), -1; with U2OS (setting [6]), 0.93; in the data set with U2OS (setting [7]), 0.95; in the data set with U2OS (setting [8]) it was 1. The “Growth Rate” value in the data set with U2OS (setting [9]) came to 0.9.

For the compound `CN1CCN(c2ccc(Nc3c4ccccc4nc4ccccc34)cc2)CC1.Cl.Cl.O`, the “Growth Rate” value in the data set on HEK-293T (setting [3]) is given as -0.94; in the data set with HEK-293T (setting [10]) it was -0.96; in the data set with HEK-293T (setting [4]), -0.78; in the data set on HEK-293T (setting [5]) it was -0.81; in the data set with HEK-293T (setting [6]), -0.62; with HEK-293T (setting [7]), -0.61. Besides, the “Growth Rate” value is on record as -0.48 with HEK-293T (setting [8]); -0.52 with HEK-293T (setting [9]); 0.35 with Fibroblast (setting [2]); -0.84 in the data set with Fibroblast (setting [3]); 0.16 in the data set on Fibroblast (setting [10]); -0.56 in the data set on Fibroblast (setting [4]). The “Growth Rate” value in the data set with Fibroblast (setting [5]) is on record as 0.17; in the data set with Fibroblast (setting [6]) it was -0.39; in the data set on Fibroblast (setting [7]) it was 0.08; with Fibroblast (setting [8]), -0.25; with Fibroblast (setting [9]), 0.11; in the data set on U2OS (setting [2]) it was 0.67. In addition, the “Growth Rate” value is on record as 0.19 in the data set on U2OS (setting [3]); 0.29 in the data set with U2OS (setting [10]); -0.09 in the data set on U2OS (setting [4]); -0.02 with U2OS (setting [5]); -0.2 in the data set with U2OS (setting [6]); -0.17 in the data set on U2OS (setting [7]). Also, the “Growth Rate” value with U2OS (setting [8]) is reported as -0.28.

For `NC[C@H](O)c1ccc(O)c(O)c1.O.O=C(O)C(O)C(O)C(=O)O`, the “Growth Rate” value with HEK-293T (setting [2]) is on record as 0.69; with HEK-293T (setting [3]), 0.63; with HEK-293T (setting [4]) it was 0.75; in the data set with HEK-293T (setting [6]), 0.76; in the data set with HEK-293T (setting [7]), 0.8; in the data set on HEK-293T (setting [8]) it was 0.86. The “Growth Rate” value is listed as 0.92 in the data set on Fibroblast (setting [1]); 0.62 with Fibroblast (setting [2]); 0.19 in the data set on Fibroblast (setting [3]); 0.79 in the data set on Fibroblast (setting [4]); 0.97 with Fibroblast (setting [6]); 0.77 in the data set with Fibroblast (setting [8]). The “Growth Rate” value in the data set with U2OS (setting [2]) was 0.46; with U2OS (setting [10]), 0.72; in the data set on U2OS (setting [5]), 0.93; in the data set with U2OS (setting [7]) it was 0.98.
